Assay results published in patent US7906656B2, “Iodopyrazolyl carboxanilides” (Bayer CropScience AG, priority 2003, dated 2011).

Tested on: not listed separately
Experiment: log P determination by HPLC on reversed-phase column (EEC directive 79/831 Annex V.A8)
Format: physicochemical
Details: pH 2.3; HPLC reversed-phase C18, 43° C.
Experimental: The given log P values were determined in accordance with EEC directive 79/831 Annex V.A8 by HPLC (High Performance Liquid Chromatography) on a reversed-phase column (C18). Temperature: 43° C. Mobile phases for the determination in the acidic range (pH 2.3): 0.1% aqueous phosphoric acid, acetonitrile; linear gradient from 10% acetonitrile to 90% acetonitrile. Calibration was carried out using unbranched alkan-2-ones (having 3 to 16 carbon atoms) with known log P values (determination of the log P values by the retention times using linear interpolation between two successive alkanones).

Row | Structure (SMILES) | logP
1 | CC(CC1CC1)c1ccccc1NC(=O)c1cn(C)nc1I (stereo not drawn) [Compound 15] | 3.08
2 | CC(C)CC(C)c1cc(F)ccc1NC(=O)c1cn(C)nc1I (stereo not drawn) [Compound 20] | 3.39
3 | CC(=O)N(C(=O)c1cn(C)nc1I)c1ccccc1C(C)CC(C)C (stereo not drawn) [Compound 21] | 3.68
4 | CC1CC(C)(C)c2cccc(NC(=O)c3cn(C)nc3I)c21 (stereo not drawn) [Compound 19] | 3.27

Further lines, results first:

Row | logP | Structure (SMILES)
5 | 3.23 | Cn1cc(C(=O)Nc2ccccc2-c2ccc(C(F)(F)F)c(F)c2)c(I)n1 [Compound 11]
6 | 3.70 | CON=C(c1ccc(-c2ccccc2NC(=O)c2cn(C)nc2I)cc1)C(F)(F)F [Compound 23]
7 | 3.09 | Cn1cc(C(=O)Nc2ccccc2-c2ccc(F)c(Cl)c2)c(I)n1 [Compound 8]
8 | 3.56 | Cn1cc(C(=O)Nc2ccccc2-c2ccc(Br)cc2Cl)c(I)n1 [Compound 32]
9 | 3.09 | Cn1cc(C(=O)Nc2ccccc2-c2ccc(Cl)c(F)c2)c(I)n1 [Compound 3]
10 | 3.64 | CC(CC(C)(C)C)c1ccccc1NC(=O)c1cn(C)nc1I (stereo not drawn) [Compound 1]
11 | 3.34 | Cn1cc(C(=O)Nc2ccccc2CCC(C)(C)C)c(I)n1 [Compound 18]
12 | 3.82 | C=C(CC(C)(C)C)c1ccccc1NC(=O)c1cn(C)nc1I [Compound 26]
13 | 3.40 | CC(C)=C(C)c1ccccc1NC(=O)c1cn(C)nc1I [Compound 27]
14 | 4.00 | CCCON=Cc1ccc(-c2ccccc2NC(=O)c2cn(C)nc2I)cc1F [Compound 5]
15 | 3.18 | Cc1ccc(-c2ccccc2NC(=O)c2cn(C)nc2I)cc1F [Compound 7]
16 | 3.38 | Cn1cc(C(=O)Nc2ccccc2-c2ccc(Cl)c(Cl)c2)c(I)n1 [Compound 2]
17 | 3.36 | Cn1cc(C(=O)Nc2ccccc2-c2ccc(I)cc2)c(I)n1 [Compound 16]
18 | 3.34 | Cn1cc(C(=O)Nc2ccccc2-c2cccc(Cl)c2Cl)c(I)n1 [Compound 28]
19 | 3.15 | CC(C)CCc1ccccc1NC(=O)c1cn(C)nc1I [Compound 24]
20 | 3.08 | Cn1cc(C(=O)Nc2ccccc2-c2ccc(Cl)cc2)c(I)n1 [Compound 14]
21 | 3.24 | Cn1cc(C(=O)Nc2ccccc2-c2ccc(C(F)(F)F)cc2)c(I)n1 [Compound 10]
22 | 3.62 | CC(=CC(C)C)c1ccccc1NC(=O)c1cn(C)nc1I [Compound 12]
23 | 3.36 | CC(C)CC(C)c1ccccc1NC(=O)c1cn(C)nc1I (stereo not drawn) [Compound 4]
24 | 3.79 | Cn1cc(C(=O)Nc2ccccc2C#CC(C)(C)C)c(I)n1 [Compound 22]
25 | 3.28 | C=C(c1ccccc1NC(=O)c1cn(C)nc1I)C(C)C [Compound 25]
26 | 3.20 | Cn1cc(C(=O)Nc2ccccc2-c2ccc(Br)cc2)c(I)n1 [Compound 9]
27 | 2.54 | C=C(C)CC(C)(O)c1ccccc1NC(=O)c1cn(C)nc1I (stereo not drawn) [Compound 13]
28 | 2.99 | Cn1cc(C(=O)Nc2ccccc2-c2cccc(Cl)c2F)c(I)n1 [Compound 17]
29 | 3.45 | Cn1cc(C(=O)Nc2ccccc2-c2ccc(Br)c(Cl)c2)c(I)n1 [Compound 31]
30 | 3.55 | Cn1cc(C(=O)Nc2ccccc2-c2ccc(C(F)(F)F)cc2Cl)c(I)n1 [Compound 30]

Same assay, conditions: reversed-phase C18 HPLC column; pH 2.3; HPLC reversed-phase C18, 43° C.

Row | chromatographic logP | Structure (SMILES)
31 | 2.31 | CCOC(=O)/C(C#N)=C\N(C)/N=C/c1ccccc1 [ethyl 3-(N′-benzylidene-N-methylhydrazino)-2-cyanoacrylate]
32 | 1.74 | CCOC(=O)c1cn(C)nc1I [ethyl 3-iodo-1-methyl-1H-pyrazole-4-carboxylate]
33 | 0.57 | Cn1cc(C(=O)O)c(I)n1 [3-iodo-1-methyl-1H-pyrazole-4-carboxylic acid]
34 | 0.72 | CCOC(=O)c1cn(C)nc1N [ethyl 3-amino-1-methyl-1H-pyrazole-4-carboxylate]
35 | 3.42 | Cn1cc(C(=O)Nc2ccc(F)cc2-c2ccc(Cl)c(Cl)c2)c(I)n1 [Compound 6, N-(3′,4′-dichloro-5-fluoro-1,1′-biphenyl-2-yl)-3-iodo-1-methyl-1H-pyrazole-4-carboxamide]

Tested on: Venturia inaequalis
Experiment: Venturia test (apple)/protective
Format: in vivo
Details: 240 h, protective, application rate 100 g/ha, evaluation 10 days after inoculation, read-out: Efficacy in %
Experimental: (§1) To produce a suitable preparation of active compound, 1 part by weight of active compound is mixed with the stated amounts of solvents and emulsifier, and the concentrate is diluted with water to the desired concentration. To test for protective activity, young plants are sprayed with the preparation of active compound at the stated application rate. After the spray coating has dried on, the plants are inoculated with an aqueous conidia suspension of the apple pathogen Venturia inaequalis and then remain in an incubation cabin at about 20° C. and 100% relative atmospheric humidity for 1 day. The plants are then placed in a greenhouse at about 21° C. and a relative atmospheric humidity of about 90%. Evaluation is carried out 10 days after the inoculation. 0% means an efficacy which corresponds to that of the control, whereas an efficacy of 100% means that no infection is observed.

Row | Structure (SMILES) | pest or weed control at 100 g/ha
36 | Cn1cc(C(=O)Nc2ccccc2-c2ccc(I)cc2)c(I)n1 [drawing 81] | 99%
37 | CC(C)CC(C)c1ccccc1NC(=O)c1cn(C)nc1I (stereo not drawn) [drawing 70] | 100%
38 | CC1CC(C)(C)c2cccc(NC(=O)c3cn(C)nc3I)c21 (stereo not drawn) [drawing 83] | 100%
39 | CCCO/N=C/c1ccc(-c2ccccc2NC(=O)c2cn(C)nc2I)cc1F [drawing 76] | 100%
40 | Cn1cc(C(=O)Nc2ccccc2-c2ccc(C(F)(F)F)cc2)c(I)n1 [drawing 78] | 94%
41 | Cn1cc(C(=O)Nc2ccccc2-c2ccc(Br)cc2)c(I)n1 [drawing 74] | 100%
42 | Cc1ccc(-c2ccccc2NC(=O)c2cn(C)nc2I)cc1F [drawing 77] | 97%
43 | CC(C)CCc1ccccc1NC(=O)c1cn(C)nc1I [drawing 82] | 98%
44 | Cn1cc(C(=O)Nc2ccccc2-c2ccc(Cl)c(Cl)c2)c(I)n1 [drawing 71] | 99%
45 | Cn1cc(C(=O)Nc2ccccc2-c2ccc(C(F)(F)F)c(F)c2)c(I)n1 [drawing 79] | 98%
46 | Cn1cc(C(=O)Nc2ccc(F)cc2-c2ccc(Cl)c(Cl)c2)c(I)n1 [drawing 72] | 100%
47 | CC(C)CC(C)c1cc(F)ccc1NC(=O)c1cn(C)nc1I (stereo not drawn) [drawing 84] | 100%

Tested on: Podosphaera leucotricha
Experiment: Podosphaera test (apple)/protective
Format: in vivo
Details: 240 h, protective, application rate 100 g/ha, evaluation 10 days after inoculation, read-out: Efficacy in %
Experimental: as §1, with “spore” for “conidia”, “apple mildew” for “apple”, “Podosphaera leucotricha.” for “Venturia inaequalis and then remain in an incubation cabin at about 20° C. and 100% relative atmospheric humidity for 1 day.”, “23°” for “21°”, “70%.” for “90%.”

Row | Structure (SMILES) | pest or weed control at 100 g/ha
48 | Cn1cc(C(=O)Nc2ccccc2-c2ccc(F)c(Cl)c2)c(I)n1 [drawing 57] | 100%
49 | Cn1cc(C(=O)Nc2ccccc2-c2ccc(Br)cc2)c(I)n1 [drawing 58] | 100%
50 | Cc1ccc(-c2ccccc2NC(=O)c2cn(C)nc2I)cc1F [drawing 61] | 100%
51 | Cn1cc(C(=O)Nc2ccccc2-c2ccc(Cl)c(Cl)c2)c(I)n1 [drawing 55] | 99%
52 | Cn1cc(C(=O)Nc2ccc(F)cc2-c2ccc(Cl)c(Cl)c2)c(I)n1 [drawing 56] | 100%
53 | CC(C)CC(C)c1cc(F)ccc1NC(=O)c1cn(C)nc1I (stereo not drawn) [drawing 68] | 100%
54 | CC(C)CCc1ccccc1NC(=O)c1cn(C)nc1I [drawing 66] | 98%
55 | CC(C)CC(C)c1ccccc1NC(=O)c1cn(C)nc1I (stereo not drawn) [drawing 54] | 100%
56 | Cn1cc(C(=O)Nc2ccccc2-c2ccc(Cl)c(F)c2)c(I)n1 [drawing 59] | 100%
57 | CC(CC(C)(C)C)c1ccccc1NC(=O)c1cn(C)nc1I (stereo not drawn) [drawing 53] | 100%
58 | CC1CC(C)(C)c2cccc(NC(=O)c3cn(C)nc3I)c21 (stereo not drawn) [drawing 67] | 100%
59 | CCCO/N=C/c1ccc(-c2ccccc2NC(=O)c2cn(C)nc2I)cc1F [drawing 60] | 100%
60 | Cn1cc(C(=O)Nc2ccccc2-c2ccc(C(F)(F)F)cc2)c(I)n1 [drawing 62] | 88%
61 | Cn1cc(C(=O)Nc2ccccc2-c2ccc(C(F)(F)F)c(F)c2)c(I)n1 [drawing 63] | 99%
62 | Cn1cc(C(=O)Nc2ccccc2-c2ccc(I)cc2)c(I)n1 [drawing 65] | 100%
63 | Cn1cc(C(=O)Nc2ccccc2-c2ccc(Cl)cc2)c(I)n1 [drawing 64] | 100%
